Measured values reported in patent US12338261B2 (SUMITOMO PHARMA ONCOLOGY, INC., priority 2015, dated 2025).
Read-outs that look alike come from different tables or passages of the source.

Assay: Pharmacokinetics in Sprague Dawley rats
Assay type: in vivo, rat
Conditions: SD rats; for concentration at 0.5 h: 0.50 hr
Description: Plasma samples were taken at 8 time-points (IV) or 7 time points (oral) over a 24 hour period following a single dose of compound IB′ (3 animals per group). […] The plasma samples were also analyzed for the presence of compound IB′.

[1] = male, Sprague Dawley, rat, plasma, IV 1 mg/kg, read-out: Plasma concentration of compound IB′ itself
[2] = male, Sprague Dawley, rat, plasma, PO 10 mg/kg, read-out: Plasma concentration of compound IB′ itself

SMILES: CN1CC[C@H](c2c(OP(=O)(O)O)cc(O)c3c(=O)cc(-c4ccccc4Cl)oc23)[C@H](O)C1 [Compound IB′, 2-(2-chlorophenyl)-5-hydroxy-8-(3-hydroxy-1-methylpiperidin-4-yl)-4-oxo-4H-chromen-7-yl dihydrogen phosphate]
- Plasma concentration of compound IB′ itself (IV 1 mg/kg, 2.00 hr, 1 mg/kg): below quantitative levels and BQL
- Plasma concentration of compound IB′ itself (IV 1 mg/kg, 4.00 hr): BQL
- Plasma concentration of compound IB′ itself (IV 1 mg/kg, 6.00 hr): BQL
- Plasma concentration of compound IB′ itself (IV 1 mg/kg, 8.00 hr): BQL
- Plasma concentration of compound IB′ itself (IV 1 mg/kg, 24.00 hr): BQL
- Plasma concentration of compound IB′ itself (PO 10 mg/kg, 2.00 hr, 10 mg/kg): below quantitative levels and BQL
- Plasma concentration of compound IB′ itself (PO 10 mg/kg, 4.00 hr): BQL
- Plasma concentration of compound IB′ itself (PO 10 mg/kg, 6.00 hr): BQL
- Plasma concentration of compound IB′ itself (PO 10 mg/kg, 8.00 hr): BQL
- Plasma concentration of compound IB′ itself (PO 10 mg/kg, 24.00 hr): BQL
- concentration at 0.083 h (male, Sprague Dawley, rat, plasma, IV 1 mg/kg, 0.083 hr, read-out: Plasma concentration of compound IB′ itself): 0.43 µg/mL
- concentration at 0.25 h [1]: 0.082 µg/mL
- concentration at 0.5 h [1]: 0.0246 µg/mL
- concentration at 1 h [1]: 0.0093 µg/mL
- concentration at 0.25 h [2]: 0.03 µg/mL
- concentration at 0.5 h [2]: 0.0204 µg/mL
- concentration at 1 h [2]: 0.0093 µg/mL
